Values of other authors as cited in patent publication US7229642B2, “Amino acid modulated extended release dosage form” (Scolr, Inc., priority 1999, dated 2007).
Read-outs that look alike come from different tables or passages of the source.

Details: for HYDROPHOBIC VALUE: hydropathy scale of Pliska et al., J. Chromatog. 216, 79, 1981, glycine = 0; for CHARACTERIZATION (hydropathy): hydropathy characteristic in words

HYDROPHOBIC VALUE	CHARACTERIZATION (hydropathy)	CHARACTERIZATION (hydropathy) (listed as glycine)	CHARACTERIZATION (hydropathy) (listed as iso-leucine)	Compound
0.35	–	–	–	C[C@H](N)C(=O)O [Alanine]
−0.99	–	–	–	NC(=O)C[C@H](N)C(=O)O [Asparagine]
−2.15	strongly hydrophilic	–	–	N[C@@H](CC(=O)O)C(=O)O [Aspartic acid]
0.76	–	–	–	N[C@@H](CS)C(=O)O [Cysteine]
1.83	Strongly Hydrophobic	–	strongly hydrophobic	CC[C@H](C)[C@H](N)C(=O)O [Isoleucine]
−0.63	–	–	–	N[C@@H](CO)C(=O)O [Serine]
−0.27	Weakly Hydrophilic	–	–	C[C@@H](O)[C@H](N)C(=O)O [Threonine]
1.32	–	–	–	CC(C)[C@H](N)C(=O)O [Valine]

Second part, the molecule before the results:

Compound	HYDROPHOBIC VALUE	CHARACTERIZATION (hydropathy)	CHARACTERIZATION (hydropathy) (listed as glycine)	CHARACTERIZATION (hydropathy) (listed as iso-leucine)
NCC(=O)O [Glycine]	0	Neutral, Balanced	neutral	–
N[C@@H](Cc1c[nH]cn1)C(=O)O [Histidine]	−0.65	–	–	–
NCCCC[C@H](N)C(=O)O [Lysine]	−1.54	–	–	–
CSCC[C@H](N)C(=O)O [Methionine]	1.10	Moderately Hydrophobic	–	–
N[C@@H](Cc1ccccc1)C(=O)O [Phenylalanine]	1.69	–	–	–
O=C(O)[C@@H]1CCCN1 [Proline]	0.84	–	–	–
N[C@@H](Cc1c[nH]c2ccccc12)C(=O)O [Tryptophan]	1.35	–	–	–
N[C@@H](Cc1ccc(O)cc1)C(=O)O [Tyrosine]	0.39	Weakly Hydrophobic	–	–
